Test results: patent US7994129B2, “Methods of using black bear parathyroid hormone” (Michigan Technological University, priority 2005, dated 2011)
Entries after “also recorded” stand apart in the source; their conditions may differ.

Legend:
rats = conditions: cited from earlier work; for osteosarcoma on long-term usage: rats
[1] = men and women who can lose 20-30% of cortical and cancellous bone; cited from earlier work
MC-3T3 cells = experiment: Gene expression by real-time PCR in MC-3T3 cells incubated with synthetic bear or human PTH 1-34 (Example 11); assay type: cell-based; conditions: 100 nM; for expression ratio of Bax/Bcl-2: 3 hours, MC-3T3 cells (FIG. 7, n=4); for expression of type I collagen / expression of osteocalcin: 6 hours, MC-3T3 cells; for expression of type I collagen: compared to the vehicle control; for expression of osteocalcin: compared to the vehicle control (FIG. 6, n=2)
Method: MC-3T3 cells were incubated in vehicle or 100 nM synthetic bear or human PTH 1-34 for 3 or 6 hours (n=2 or 4). Total RNA was isolated, and cDNA was generated with reverse transcription. Primers for the bone matrix proteins type I collagen and osteocalcin, the pro-apoptotic protein Bax, the anti-apoptotic protein Bcl-2, and the housekeeping genes Gapdh, β-actin, and cyclophillin were designed using PrimerQuest software (Integrated DNA Technologies, Coralville, Iowa). Real-time PCR was performed using the Mx3000P real-time PCR system (Stratagene, LaJolla, Calif.). All samples were measured in duplicate. Gene expression was determined using the relative standard curve method normalized to the geometric mean of the three housekeeping genes (Gapdh, β-actin, and cyclophillin). Apoptosis-related genes were analyzed as the expression ratio of Bax/Bcl-2, since a decrease in this ratio is associated with decreased apoptosis in vitro.

[2] = tested on: MC-3T3 osteoblastic cells and MLO-Y4 osteocytic cells; experiment: Gene expression in bone cell lines by real-time PCR (Example 7); assay type: cell-based; conditions: 100 nM PTH polypeptide, 1 or 3 hours
Method: Full-length recombinant black bear PTH (residues 1-84) is produced and its effects on levels of gene expression in bone cell lines (MC-3T3 osteoblastic cells and MLO-Y4 osteocytic cells) are investigated and are compared to results obtained using recombinant human PTH 1-84. Equivalent experiments are conducted using subfragments of black bear and human PTH, the subfragments including amino acid residues 1-34, 1-36, 7-84, 11-84, and 41-52 of the full-length (1-84) mature protein. For some experiments, black bear and human PTH polypeptides are synthesized with solid-phase methods.
To determine the effect of black bear and human PTH on regulation of bone matrix, transcriptional regulatory, anti-apoptosis (Bcl-2) genes, and the pro-apoptosis gene Bax, cells are cultured for 1 or 3 hours with human or bear PTH 1-84 or a subfragment. Gene expression is quantified with real-time PCR. […]
Reverse transcription to generate cDNA is performed using Superscript II reverse transcriptase (Invitrogen, Carlsbad, Calif.), and 0.5 μg Oligo(dT) 12-18 primer at 42° C. for 20 minutes, 50° C. for 10 minutes and 42° C. for 1 hour in a gradient thermocycler (Mastercycler gradient, Eppendorf, Westbury, N.Y.). […] Gene expression is determined using the relative standard curve method normalized to the geometric mean of the three housekeeping genes. […]

ovariectomized rats = conditions: cited from earlier work
procollagen-1 mRNA = conditions: Nasu et al., 1998; cited from earlier work
[3] = humans, once daily; cited from earlier work

## CC[C@H](C)[C@H](NC(=O)[C@H](CCC(=O)O)NC(=O)[C@H](CO)NC(=O)[C@@H](NC(=O)[C@@H](N)CO)C(C)C)C(=O)N[C@@H](CCC(N)=O)C(=O)N[C@@H](CC(C)C)C(=O)N[C@@H](CCSC)C(=O)N[C@@H](Cc1cnc[nH]1)C(=O)N[C@@H](CC(N)=O)C(=O)N[C@@H](CC(C)C)C(=O)NCC(=O)N[C@@H](CCCCN)C(=O)N[C@@H](Cc1cnc[nH]1)C(=O)N[C@@H](CC(C)C)C(=O)N[C@@H](CC(N)=O)C(=O)N[C@@H](CO)C(=O)N[C@@H](CCSC)C(=O)N[C@@H](CCC(=O)O)C(=O)N[C@@H](CCCN=C(N)N)C(=O)N[C@H](C(=O)N[C@@H](CCC(=O)O)C(=O)N[C@@H](Cc1c[nH]c2ccccc12)C(=O)N[C@@H](CC(C)C)C(=O)N[C@@H](CCCN=C(N)N)C(=O)N[C@@H](CCCCN)C(=O)N[C@@H](CCCCN)C(=O)N[C@@H](CC(C)C)C(=O)N[C@@H](CCC(N)=O)C(=O)N[C@@H](CC(=O)O)C(=O)N[C@H](C(=O)N[C@@H](Cc1cnc[nH]1)C(=O)N[C@@H](CC(N)=O)C(=O)N[C@@H](Cc1ccccc1)C(=O)O)C(C)C)C(C)C [LY333334]
rats
  osteosarcoma on long-term usage: generates osteosarcoma

## ALX1-11: recombinant human PTH 1-84 (NPS Pharmaceuticals), under consideration for FDA approval
[1]
  lost bone recovered during suggested treatment regimen: 8%
rats
  osteosarcoma on long-term usage: generates osteosarcoma

## bear PTH 1-34: synthetic polypeptide of amino acid residues 1-34 of black bear parathyroid hormone, SEQ ID NO: 2 (SVSEIQFMHNLGKHLSSMERVEWLRKKLQDVHNF; listed as Ursus americanus)
MC-3T3 cells
  expression ratio of Bax/Bcl-2: decreased
  expression of type I collagen: did not affect
  expression of osteocalcin: substantially upregulated
MC-3T3 cells; listed as black bear PTH 1-34
  expression ratio of Bax/Bcl-2: decreases
  expression of osteocalcin: upregulate
[2]
  gene expression (bone matrix, transcriptional regulatory and transcriptional activator genes): upregulates

## bovine PTH 1-34: bovine PTH 1-34; rat PTH 1-34 has 5 amino acid sequence differences from it (AVSEIQFMHNLGKHLSSMERVEWLRKKLQDVHNF; Parathyroid hormone; UniProt P01268 32-65, looked up, fragment)
Ovariectomized rats; daily 25 μg injections
  greater bone formation response than to rat PTH 1-34: 25%
Ovariectomized rats; injection, versus rat PTH 1-34
  greater increase in bone volume fraction during treatment: 37%

## human PTH 1-34: synthetic human PTH 1-34, the 1-34 region of human PTH, used as comparator (SVSEIQLMHNLGKHLNSMERVEWLRKKLQDVHNF; Parathyroid hormone; UniProt P01270 32-65, looked up, fragment)
procollagen-1 mRNA
  production of procollagen-1 mRNA: down-regulates
MC-3T3 cells
  expression ratio of Bax/Bcl-2: increases
  expression of type I collagen: did not affect
  expression of osteocalcin: substantially upregulated; also recorded: upregulate

## human PTH 1-84: full-length human parathyroid hormone, residues 1-84
rats; preliminary results
  rate of carcinogenicity compared with human PTH 1-34: lower

B1: Human PTH: human parathyroid hormone given once daily to humans (protein, UniProt P01270 32-115, looked up)
Parathyroid hormone: SVSEIQLMHNLGKHLNSMERVEWLRKKLQDVHNFVALGAPLAPRDAGSQRPRKKEDNVLVESHEKSLGEADKADVNVLTKAKSQ
modifications: Parathyroid hormone
[3]
  bone mass: increases
  fracture incidence: decreases
